Assay results as given in ChEMBL document CHEMBL6096714, “Advancements in Neurotechnology: Pioneering Brain Monitoring and Stimulation for Enhanced Treatment and Understanding” (ACS Med Chem Lett, 2025).
The source made the active and inactive calls. The rule behind the calls is not given here.

Experiments:
Type in all cases: functional, cell-based
[1] = system: Cortical neurone; test: Neuroplasticity effect in female Wistar rat Cortical neuron assessed as increase in neurite number at 10 uM incubated for […]
[2] = system: Cortical neurone; test: Neuroplasticity effect in female Wistar rat Cortical neuron assessed as increase in neurite length at 10 uM incubated for […]
[3] = system: Cortical neurone; test: Neuroplasticity effect in female Wistar rat Cortical neuron assessed as increase in neurite branching at 10 uM incubated for […]

SMILES	Activity [1]	Activity [2]	Activity [3]
CN1CCc2[nH]c3cc(OCc4ccccc4)ccc3c2CC1	Active	Active	inactive
Cn1c2c(c3ccc(OCc4ccccc4)cc31)CCNCC2	inactive	inactive	inactive
Fc1ccc(Oc2ccc3c4c([nH]c3c2)CCNCC4)cc1	Active	Active	Active
c1ccc(COc2ccc3c4c([nH]c3c2)CCNCC4)cc1	Active	Active	Active
CN1CCc2[nH]c3cc(Oc4ccccc4)ccc3c2CC1	Active	Active	Active
CN1CCc2[nH]c3cc(OCc4ccc(F)cc4)ccc3c2CC1	Active	Active	Active
